Test results as given in patent US20130303376A1, “METHODS OF IMPROVING PLANT GROWTH” (Bayer CropScience AG, priority 2007, published 2013).
Several values for one entry are separate records, joined by “and”; a condition that tells them apart may be missing. Identical values can stand only once.

Assays:
Format in all cases: in vivo
[1] = test system: Solanum lycopersicum ‘Rentita’; assay: Shoot length test on tomatoes under oxygen deficiency conditions in the nutrient solution; conditions: 1.0 mg a.i./plant; floating box, nutrient solution not aerated (oxygen deficiency stress); average maximum shoot length after 19 d
Method: To prepare a suitable solution of the preparation, 1 part by weight of active substance is mixed with water to give the desired concentration.
(§1) Tomato seeds (Solanum lycopersicum ‘Rentita’) are grown in rock wool. After germination, the rock wool blocks are transferred into a floating box provided with the solution of the preparation and grown on under suitable climatic conditions.
(§2) The nutrient solution of the floating box was not aerated (oxygen deficiency stress).
After the desired period of time, the maximum shoot length per tomato plant is measured, and the average shoot length per floating box and treatment is calculated.

[2] = test system: Solanum lycopersicum ‘Rentita’; assay: Root growth test of tomatoes under oxygen deficiency conditions in the nutrient solution; conditions: 1.0 mg a.i./plant; floating box, nutrient solution not aerated (oxygen deficiency stress); average maximum root length after 12 d
Method: To prepare a suitable solution of the preparation, I part by weight of active substance is mixed with water to give the desired concentration.
as §1, §2
After the desired period of time, the maximum length of the root per tomato plant is measured, and the average root length per floating box and treatment is calculated.

[3] = test system: Triticum aestivum ‘Dekan’; assay: Leaf biomass test on wheat under oxygen deficiency conditions in the nutrient solution; conditions: 0.5 mg a.i./plant, floating box, nutrient solution not aerated (oxygen deficiency stress)
From the text: (§3) To prepare a suitable solution of the preparation, 1 part by weight of formulated product is mixed with water to give the desired concentration.
(§4) Wheat kernels (Triticum aestivum ‘Dekan’) or tomato seeds (Solanum lycopersicum ‘Rentita’) are sown in compost and grown under suitable climatic conditions in a floating box provided with the solution of the preparation. The nutrient solution of the floating box was not aerated (oxygen deficiency stress).
(§5) After the desired period of time, the leaf biomass per wheat or tomato plant is measured, and the average weight per floating box and treatment is calculated.

[4] = test system: Triticum aestivum ‘Dekan’; assay: Root growth test of wheat under oxygen deficiency conditions in the nutrient solution; conditions: 0.5 mg a.i./plant; floating box, nutrient solution not aerated (oxygen deficiency stress); average maximum root length after 14 d
Method: To prepare a suitable solution of the preparation, I part by weight of formulated product is mixed with water to give the desired concentration.
Wheat kernels (Triticum aestivum ‘Dekan’) are sown in compost and grown under suitable climatic conditions in a floating box provided with the solution of the preparation. The nutrient solution of the floating box was not aerated (oxygen deficiency stress).
After the desired period of time, the maximum length of the root per wheat plant is measured, and the average root length per floating box and treatment is calculated.

[5] = test system: Solanum lycopersicum ‘Rentita’; assay: Leaf biomass test on tomatoes under oxygen deficiency conditions in the nutrient solution; conditions: 1.0 mg a.i./plant, floating box, nutrient solution not aerated (oxygen deficiency stress)
From the text: as §3, §4, §5

[6] = test system: Botrytis cinerea; assay: Drench application for controlling Botrytis cinerea (grey mould) on tomatoes; design: Disease level, replicates 1-9 / Disease level Ø / Disease level and shed leaves: scale not given here; conditions: tomato; for Disease level Ø / Shed leaves Ø / Disease level, replicates 1-9 / Shed leaves, replicates 1-9 / Disease level and shed leaves: 10 d post-inoculation, drench, all actives 5 d before inoculation; for Disease level Ø / Shed leaves Ø / Disease level, replicates 1-9 / Shed leaves, replicates 1-9: I-34/I-7 10 mg a.i./plant, fluopyram 20 mg a.i./plant; for Disease level Ø / Shed leaves Ø: mean of 9; for Disease level, replicates 1-9 / Shed leaves, replicates 1-9: single replicates; for Disease level and shed leaves: sum of the two Ø
Method: To control Botrytis cinerea (grey mould) on tomatoes, tomato plants which had been grown in peaty soil were treated with the compounds I-34 or I-7 alone or in combination with the fungicide fluopyram (drench application) 5 or 10 days before being inoculated with Botrvtis cinerea. [table] The inoculation with Botrytis cinerea was carried out at the stated points in time (5 or 10 days after drench application of compound I-34, I-7 and/or fluopyram). Inoculation density: 15 000 spores/ml, approx. 33 ml of spore suspension/plant. The disease level of the plants was evaluated 10 days after the inoculation with Botrytis cinerea.

Compound	Shoot length of tomatoes: Length in cm after 19 d [1]	Root growth of tomatoes: Length in cm after 12 d [2]	Disease level Ø [6]	Shed leaves Ø [6]	Disease level, replicates 1-9 [6]	Shed leaves, replicates 1-9 [6]	Disease level and shed leaves [6]	other results
O=C1C=C(N(CCF)Cc2ccc(Cl)nc2)CO1 [Compound (I-6), 4-{[(6-chloropyrid-3-yl)methyl](2-fluoroethyl)amino}furan-2(5H)-one]	7.33 cm	11.08 cm						
O=C1C=C(N(Cc2ccc(Cl)nc2)CC(F)F)CO1 [Compound (I-7), 4-{[(6-chloropyrid-3-yl)methyl](2,2-difluoroethyl)amino}furan-2(5H)-one]	7.15 cm	8.67 cm	3	3	3 (6×) and 2 and 4 and 5	5 (3×) and 6 and 3 (2×) and 4 and 2 and 1	68	Leaf biomass of wheat: Weight in g after 22 d [3]: 15.7 g; Root growth of wheat: Length in cm after 14 d [4]: 22.1 cm; Leaf biomass of tomato: Weight in g after 21 d [5]: 19.4 g
CN(Cc1cnc(Cl)c(F)c1)C1=CC(=O)OC1 [Compound (I-8), 4-{[(6-chloro-5-fluoropyrid-3-yl)methyl](methyl)amino}furan-2(5H)-one]	6.6 cm	7.43 cm						
O=C1C=C(N(CCF)Cc2cnc(Cl)c(Cl)c2)CO1 [Compound (I-14), 4-{[(5,6-dichloropyrid-3-yl)methyl](2-fluoroethyl)amino}furan-2(5H)-one]		6.97 cm						
CN(Cc1ccc(Cl)nc1)C1=CC(=O)CC1 [Compound (I-18), 3-{[(6-chloropyrid-3-yl)methyl](methyl)amino}cyclopent-2-en-1-one]		7.56 cm						
CC1OC(=O)C=C1N(C)Cc1ccc(Cl)nc1 (stereo not drawn) [Compound (I-25), 4-{[(6-chloropyrid-3-yl)methyl](methyl)amino}-5-methylfuran-2(5H)-one]	6.8 cm	9.19 cm						
O=C1C=C(N(Cc2ccc(Cl)nc2)C2CC2)CO1 [Compound (I-31), 4-{[(6-chloropyrid-3-yl)methyl](cyclopropyl)amino}furan-2(5H)-one]	6.78 cm	11.16 cm						
CN(Cc1ccc(Cl)nc1)C1=CC(=O)OC1 [Compound (I-34), 4-{[(6-chloropyrid-3-yl)methyl](methyl)amino}furan-2(5H)-one]	6.75 cm	9.53 cm	3	3	5 and 2 (4×) and 3 (2×) and 4 (2×)	3 (3×) and 0 and 4 (3×) and 5 and 2	61	
O=C(NCCc1ncc(C(F)(F)F)cc1Cl)c1ccccc1C(F)(F)F [Fluopyram, fluopyram, reference compound]			1	0	5 (3×) and 2 and 1 (3×) and 3 (2×)	0	11	Appearance of infected leaf tissue (symptoms of the disease) ([6]; 10 d post-inoculation with Botrytis cinerea, FIGS. 4-6, in words): remains dark and wet
